# In patent US20020174454A1, “Overexpression of ABI5 in plants to prevent precocious seed germination and to confer resistance to drought and high salt” (priority 2001, published 2002):
# How the values were obtained:
# Assay type in all cases: in vivo, Arabidopsis thaliana
# [1] = tested on: WT Ws plants; assay: Survival after drought treatment on absorbing papers, WT Ws plants treated with ABA for 10 days; conditions: +ABA 5 μM for 10 days, n = 30
# Method: (§1) Seeds of Arabidopsis thaliana, ecotype Wassilewskija, Columbia or Landsberg erecta were surface sterilized in 50% commercial bleach (Clorox) and 0.05% Tween 20 as described (Lopez-Molina and Chua, 2000) and then plated on Murashige and Skoog (MS) medium (Murashige and Skoog, 1962) containing 0.8% (w/v) Bacto-Agar (Difco Laboratories). Plates were routinely kept for 3 days in the dark at 4° C. to break dormancy (stratification) and transferred thereafter to a tissue culture room under constant white fluorescent light (27 μmol.m^−2.s^−1) at 22° C. Seeds of abi1, abi3-I and abi4 were obtained from the Nottingham Arabidopsis Stock Center (NASC). For ABA treatments, seedlings were transferred to plates supplemented with ABA (mixed isomers, Sigma A7393) which was dissolved in methanol. Control plates contained equal amounts of methanol.
# (§2) To test this hypothesis, we broke embryo dormancy of WT and abi5-4 seeds in the absence of ABA for 24 hours. Seeds were then transferred for an additional 10 days to media with or without ABA. After 10 days, ABA-treated WT mature embryos had germinated but were arrested in growth as described above, whereas abi5-4 or non-treated WT Ws plants were green and continued to grow. Plants were then water-stressed for different time intervals on absorbent papers before being allowed to recover in normal medium. […] This is in sharp contrast with abi5-4 embryos, none of which survived. abi5-4 plants were able to survive better with than without ABA (Table 1), although not to the same extent as WT. […] Indeed, abi5-4 plants grow more slowly on 5 μM ABA than on medium lacking it, whereas the growth of WT plants is completely arrested. This developmental difference may be responsible for the higher resistance to water depletion of ABA-treated abi5-4 plants (Table 1).
# [2] = tested on: abi5-4 plants; assay: Survival after drought treatment on absorbing papers, abi5-4 plants treated with ABA for 10 days; conditions: abi5, +ABA 5 μM for 10 days, n = 30
# Method: as §1, §2
# [3] = tested on: ABI5; assay: ABI5 protein accumulation in WT Ws seeds/seedlings by Western blot
# From the text: RNA extraction and Northern blot hybridizations were done as described (Lopez-Molina and Chua, 2000). A DNA fragment encoding the ABI5 open reading frame was cloned into pET28a (Novagen) and the recombinant protein was induced and purified using a commercial kit according to the manufacturer's instructions (His trap, Amersham Pharmacia). Polyclonal anti-ABI5 antiserum was obtained from rabbits immunized with His-tagged ABI5. Standard methods using His-ABI5 coupled to a CNBr activated Sepharose 6-MB column (Amersham Pharmacia) were used to affinity purify specific ABI5 antibody from sera.
# Plant protein extracts were resolved under reducing conditions using 10% SDS-polyacrylamide gels (Laemmli, 1970). […]
# ABA concentrations (3-10 μM) that discriminate between abi5-4 mutants and WT under normal growth conditions were selected. […] Indeed, by immunoblot analysis, the ABI5 protein with a molecular mass of about 50 Kd was detected two days after stratification in the presence of ABA. […]
# To determine whether the observed ABA-dependent accumulation of ABI5 levels was restricted to early development, we stratified WT seeds in the absence of ABA and then transferred the seedlings at different time intervals to a medium supplemented with 5 μM ABA (FIG. 3A). […] ABI5 levels were monitored by Western blot analysis. […] ABI5 levels were monitored by Western blot analyses as described for FIG. 1 (FIG. 3B).
# [4] = tested on: HA-ABI5; assay: HA-ABI5 accumulation in WT/35S::HA-ABI5 transgenic lines by immunoblot; conditions: WT/35S::HA-ABI5 lines, anti-HA immunoblot
# Method: Given the strong ABA-dependent ABI5 protein accumulation, we were interested to determine whether ABI5 protein stability is altered in the presence of ABA. For this purpose we generated WT/35S::HA-ABI5 transgenic lines constitutively expressing HA-ABI5 transcript. DNA manipulations were performed according to standard methods (Sambrook et al., 1989). 35S constructs were generated using a binary vector (Kost et al., 1998). Transgenic Arabidopsis lines (Ws ecotype) were generated using the Agrobacterium tumefaciens vacuum-infiltration method (Bechtold and Pelletier, 1998). Seeds (T1) from infiltrated plants were plated on MS medium containing 10 mg/L gluphosinate ammonium (Crescent Chemical) and 100 mg/L cefotaxime (Sigma).
# In these lines, HA-ABI5 accumulation is 5-10 fold higher in the presence of ABA as shown by immunoblot analysis using anti-HA antibodies. 8-day old Ws/35S::HA-ABI5 seedlings (T3 generation) were transferred to MS medium with or without 50 μM ABA. Proteins were extracted at 0 hours, 10 minutes, 1 hour, 2 hours and 30 minutes, and 6 hours and ABI5 protein levels were monitored by Western blot analysis using antibodies to HA (FIG. 2A; each lane contains 5 μg protein). […] Equal amounts (5 μg) of protein were loaded on a 10% SDS-polyacrylamide (Novex) gel and analyzed by Western blots using rabbit antibody to HA (1:3,000; Santa Cruz).
# [5] = tested on: WT Ws seeds; assay: Germination and early growth arrest of WT seeds on ABA plates
# Method: as §1
# Given the ABA-insensitivity of abi5-4 mutant and the timing of ABI5 induction upon ABA exposure, we studied the effect of ABA on growth during early development. […] Virtually all WT seeds were fully germinated on 5 μM ABA only 5 days post-stratification (FIG. 3C). Similar results were obtained with different Ws seed batches and for the ecotypes Landsberg and Columbia. At 10 μM ABA, complete germination was observed 8 days post-stratification (FIG. 3D). […] ABI5 levels remained constant as long as ABA was present. […] Upon ABA removal, all of the embryos started to green and resumed normal growth.
# [6] = tested on: Ws/35S::HA-ABI5 transgenic plants; assay: Germination and growth of ABI5 overexpressing transgenic seeds on ABA
# Method: To determine whether the presence of ABI5 is sufficient to arrest growth in the absence of ABA, we expressed the ABI5 gene from a constitutive promoter. Transgenic Arabidopsis lines expressing ABI5 under the control of the cauliflower mosaic virus 35S promoter in WT Ws or abi5-4 backgrounds were generated and several independent lines expressing various levels of ABI5 were obtained. WT Ws and Ws/35S::HA-ABI5 transgenic plants were grown for 5 days with 0, 0.5 and 5 μM ABA. In the transgenic line shown in FIG. 5A, ABI5 levels in absence of ABA were at least five fold higher than that in WT plants grown in the presence of ABA. Transgenic seeds were arrested in development at 0.5 μM ABA and only started to germinate after 5 days (FIG. 5A). WT Ws seeds were insensitive to 0.5 μM ABA and were fully germinated in 5 μM ABA after 5 days (FIG. 5A). Despite the accumulation of ABI5, the lines germinated and developed normally in the absence of ABA.
# We next investigated the effect of ABA in ABI5 overexpressing lines. Addition of 5 μM ABA severely delayed germination by at least 7 days and blocked mature embryo growth in several lines. To measure more precisely the ABA response, we plated WT/35S::HA-ABI5 transgenic seeds on growth media containing different ABA concentrations. Treatment of WT/35S::HA-ABI5 plants with 0.5 μM ABA was sufficient to phenocopy the response of WT plants exposed to 5 μM ABA (FIG. 5A).
# [7] = tested on: Ws/35S::HA-ABI5 transgenic lines; assay: ABA inhibition of root growth, ABI5-overexpressing lines; conditions: 5-day old seedlings, 5 and 10 μM ABA for 5 days, n=15
# Method: (§3) The following methods were used in obtaining the further results described below. WT Ws seedlings and transgenic Ws seedlings carrying 35S::HA -ABI5 (WT/35S::HA -ABI5, T3 generation) were germinated and grown for 5 days on MS medium without ABA. Seedlings were then transferred to plates containing 5 μM ABA, and subsequent root growth was scored after 5 days. Values were expressed as the average ±SD of 15 seedlings. For water loss measurement, young rosette leaves at the same developmental stage were excised from WT Ws, WT/35S::HA-ABI5 and abi1 plants and weighed at the different times indicated (n=3).
# (§4) At 0.5 μM ABA, WT plants grew normally (FIG. 5A). Inhibition of root growth by ABA was unaffected in abi5-4 mutants but was exacerbated in ABI5-overexpressing lines (FIG. 5B). Five-day old seedlings grown in the absence of ABA were transferred to 0, 5 and 10 μM ABA plates for 5 days. The root length of ABA-treated seedlings was expressed as a percentage of non-treated controls (n=15).
# [8] = tested on: abi5-4 mutants; assay: ABA inhibition of root growth, abi5-4 mutants
# Method: as §3, §4
smiles,measurement,setting,value
"CC1=CC(=O)CC(C)(C)[C@@]1(O)/C=C/C(C)=C\C(=O)O [ABA, Abscisic acid]",Percentage of survival after different period of drought treatment (hours),[1]; 0 hours drought,100%
same,Percentage of survival after different period of drought treatment (hours),[1]; 8 hours drought,100%
same,Percentage of survival after different period of drought treatment (hours),[1]; 12 hours drought,98%
same,Percentage of survival after different period of drought treatment (hours),[1]; 24 hours drought,90%
same,Percentage of survival after different period of drought treatment (hours),[1]; 36 hours drought,84%
same,Percentage of survival after different period of drought treatment (hours),[2]; 0 hours drought,100%
same,Percentage of survival after different period of drought treatment (hours),[2]; 8 hours drought,97%
same,Percentage of survival after different period of drought treatment (hours),[2]; 12 hours drought,55%
same,Percentage of survival after different period of drought treatment (hours),[2]; 24 hours drought,20%
same,Percentage of survival after different period of drought treatment (hours),[2]; 36 hours drought,0%
same,developmental window of efficient induction of ABI5 accumulation,[3]; WT Ws transferred to 5 μM ABA plates,48-60 hours post-stratification
same,increase of ABI5 protein level in the presence of ABA,"[3]; WT Ws, 5 μM ABA, first two days post-stratification",at least 10 fold
same,HA-ABI5 accumulation higher in the presence of ABA,[4],5-10 fold
same,response of WT Ws seeds to ABA,"[5]; 0.5 μM ABA, 5 days",insensitive
same,time after which all seeds fully germinate in the presence of ABA,[5]; ABA concentration range 3 to 10 μM,10 days
same,"embryos remaining white and quiescent, not growing","[5]; WT germinated embryos kept on ABA for at least a month, n=200",95%±3
same,time at which virtually all seeds were fully germinated,"[5]; WT seeds, 5 μM ABA",5 days post-stratification
same,time at which complete germination was observed,"[5]; WT seeds, 10 μM ABA",8 days post-stratification
same,delay of germination,"[6]; ABI5 overexpressing lines, 5 μM ABA",at least 7 days
same,ABA concentration sufficient to phenocopy the response of WT plants exposed to 5 μM ABA,[6]; WT/35S::HA-ABI5 plants,0.5 µM
same,time after which arrested transgenic seeds started to germinate,"[6]; Ws/35S::HA-ABI5 seeds, 0.5 μM ABA",5 days
same,inhibition of root growth by ABA compared with WT Ws,[7],exacerbated
same,inhibition of root growth by ABA,[8],unaffected
